This note sets out measurements from patent US20180169045A1, “AMINO ACID COMPOSITIONS AND METHODS FOR THE TREATMENT OF LIVER DISEASES” (AXCELLA HEALTH INC., priority 2016, published 2018).

The subject of assay [1] is LX-2 hepatic stellate cells. Description: TGFβ1-induced fibrogenic gene expression (Col1a1, Acta2, Timp2) in LX-2 cells, qRT-PCR. Particulars: for Col1a1 gene expression, Mean: TGFβ1 Yes. Set-up: key to Col1a1 gene expression, Mean: relative expression normalized to β-actin by ΔΔCt method. The format is cell-based. Background: In qPCR the cycle at which signal appears reflects the starting amount.

Assay [2] relates to STAM™ mice. The assay is described as follows: STAM mouse NASH model (Example 6): activated hepatic stellate cells, α-smooth muscle actin staining. Particulars: individual animals. The format is in vivo. The method, then: Amino Acid Composition A-1 and Obeticholic acid (6α-ethyl-chenodeoxycholic acid; “OCA”) were tested for their ability to treat NASH in the STAM™ model (Stelic Institute & Co., Tokyo, Japan; Saito K. et al., 2015 Sci Rep 5:12466). Two additional groups of normal C57BL/6 mice fed standard chow and vehicle treated STAM™ mice were included as controls. All animals receiving treatment or vehicle were treated starting at 6 weeks until 9 weeks of age. Compounds were administered via oral gavage, with a dose volume of 10 ml/kg. Amino Acid Composition A-1 was administered twice daily at a dose of 1500 mg/kg, and OCA was administered once daily at a dose of 30 mg/kg.
STAM™ is a model for non-alcoholic steatohepatitis (NASH) and hepatocellular carcinoma (HCC), developed by SMC Laboratories, Inc. and created by the combination of chemical and dietary interventions using C57BL/6 mice (Saito K. et al., 2015 Sci Rep 5:12466). Mice are treated with a low dose of streptozotocin at birth and fed a high fat diet starting at 4 weeks. Evidence of fatty liver is present by 5 weeks, followed by NASH by 7 weeks and fibrosis by 9 weeks. […]
Liver sections of all mice were stained for the marker α-smooth muscle actin (αSMA) to identify activated hepatic stellate cells. Images were quantified using the percent of positively stained area was used as a measure of stellate cell activation. […]

In assay [3] the test system is FATZO mice. The assay is described as follows: FATZO mouse NASH model (Example 15): liver histology (NAS, fibrosis score, Sirius Red, Oil Red O). Format: in vivo. Particulars: FATZO mice on WDF, 4 weeks. The text has this:
NASH was induced in 60 male FATZO mice by a western diet (Research Diet # D12079B; fat 40% kcal, protein 17% kcal, carbohydrate 43% kcal) supplemented with 5% fructose in the drinking water (WDF) during a 16 week induction phase. Diets and water were available ad libitum. Littermate control male FATZO mice fed with a control diet (n=6, Purina #5008; fat 17% kcal, protein 27% kcal, carbohydrate 56% kcal) and sterile water were set up for control purpose. Mice were housed in plastic cages with microisolator. Sterilized bedding was replaced once a week. Mice were housed three per cage and maintained on a twelve hour light cycle throughout study duration. Room temperature was monitored daily and maintained at 22-25° C. Body weight was recorded every week during the induction phase. […]
[…], […]+G, LRQNAC, OCA and Vehicle were administered by oral gavage at a volume of 10 mL/kg throughout the study. Dosages were calculated by daily body weight. […]
The livers were evaluated using the NASH liver criteria for scoring. In this mouse study, one cross section of liver for each case was analyzed with the NASH score system. […] The NAS can range from 0 to 8 and is calculated by the sum of scores of steatosis (0-3), lobular inflammation (0-3) and hepatocyte ballooning (0-2) from H&E stained sections. Fibrosis was scored (0-4) from picrosirius red stained slides. […]

The mark [4] stands for this setting: individual amino acid at 1X HMDB concentration.
Setting [5] is: individual amino acid at 50X HMDB concentration.

As to `CC(C)[C@H](N)C(=O)O` [VAL], the entries for the “Col1a1 gene expression, Mean” value in assay [1] (setting [4]) and in assay [1] (setting [5]) were 2.093 and 2.203, respectively. As for `NC(=O)CC[C@H](N)C(=O)O` [GLN], the “Col1a1 gene expression, Mean” value amounted to 2.340 in assay [1] (setting [4]) and 2.194 in assay [1] (setting [5]). `N[C@@H](CS)C(=O)O` [CYS]: the results for the “Col1a1 gene expression, Mean” value in assay [1] (setting [4]) and in assay [1] (setting [5]) were 2.491 and 1.695, respectively. With `N=C(N)NCCC[C@H](N)C(=O)O` [ARG], the “Col1a1 gene expression, Mean” value in assay [1] (setting [4]) is 1.620; in assay [1] (setting [5]) it was 1.970. For `CC(C)C[C@H](N)C(=O)O` [LEU], in that order: 1.901 and 2.372. Take `N[C@@H](CS)C(=O)O` [Cysteine, L-Cysteine]: the “Col1a1 expression of individual amino acids, in words” value in assay [1] (individual amino acid at 50× HMDB derived concentration) is given as “significant decrease”. Take `CC[C@H]1[C@@H](O)[C@@H]2[C@H](CC[C@]3(C)[C@@H]([C@H](C)CCC(=O)O)CC[C@@H]23)[C@@]2(C)CC[C@@H](O)C[C@@H]12` [OCA, 6α-ethyl-chenodeoxycholic acid]: in assay [2], the “Activated hepatic stellate cells (mean positively stained area, α-smooth muscle actin): raw data” value stood at 1.5. Besides, in assay [3], the “NAFLD activity score (NAS) compared to vehicle, in words” value was “no significant effect”.
